Laboratory results reported in patent publication US12612622B2, “Targeted mutagenesis using base editors” (Qi Biodesign Biotechnology Company Limited, priority 2018, dated 2026).

Tested on: OsACCase gene
Assay: Base editing (pZRH-PBE + individual sgRNAs) of OsACCase functional domain in transgenic M0 rice plants
Format: in vivo
Settings: for Frequency of indel (%) / Frequency of substitution (%) / No. of WT / No. of indel / No. of substitution: transgenic M0 plants; for No. of WT / No. of indel / No. of substitution: per sgRNA target
Description: For individual cloning, the following method is used. APOBEC1, partial nCas9 and UGI sequences (SEQ ID NO: 129) without BsaI were synthesized commercially (GenScript, Nanjing, China) and cloned into the pUC57 (SEQ ID NO: 130) as intermediate vector. […] The full length APOBEC1-nCas9-UGI was excised using XmaJI and SacI, then was subcloned into pHUE411 that had been digested using the same two enzymes. The resultant vector pZRH-PBE (SEQ ID NO: 133) was used to construct sgRNA expression plasmids using restriction enzyme site BsaI.

[1] = edited allele with the substitution of the same table line

| Substance | No. of alleles [1] | Frequency of indel (%) | Frequency of substitution (%) | No. of WT | No. of indel | No. of substitution | No. of alleles (unedited target site sequence) | No. of alleles (edited allele with the substitution of the same table line, edited allele (SEQ ID NO: 77)) | No. of alleles (edited allele with the substitution of the same table line, edited allele (SEQ ID NO: 78)) | No. of alleles (edited allele with the substitution of the same table line, edited allele (SEQ ID NO: 110)) | No. of alleles (edited allele with the substitution of the same table line, edited allele (SEQ ID NO: 111)) | No. of alleles (edited allele with the substitution of the same table line, edited allele (SEQ ID NO: 112)) | No. of alleles (edited allele with the substitution of the same table line, edited allele (SEQ ID NO: 86)) | No. of alleles (edited allele with the substitution of the same table line, edited allele (SEQ ID NO: 87)) |
| --- | --- | --- | --- | --- | --- | --- | --- | --- | --- | --- | --- | --- | --- | --- |
| R23: sgRNA in pZRH-PBE; OsACCase target site GCGTTTCTAATATATTGAGGTGG (SEQ ID NO: 81) (expressed or natural sequence; target site or template, no part of the molecule) | 9 | 0.0% | 22.2% | 21 | 0 | 6 | 3 | – | – | – | – | – | – | – |
| R22: sgRNA in pZRH-PBE; OsACCase target site ACTGTTTCAGATGACCTTGAAGG (SEQ ID NO: 79) (expressed or natural sequence; the letters are possibly those of the target site) | 4 | 0.0% | 18.8% | 13 | 0 | 3 | 2 | – | – | – | – | – | – | – |
| R40: sgRNA in pZRH-PBE; OsACCase target site CCTATTATTCTTACAGGCTATTC (SEQ ID NO: 127) (chemistry not fully specified; the letters are possibly those of the target site) | 1 | 6.7% | 13.3% | 12 | 1 | 2 | 1 | – | – | – | – | – | – | – |
| R30: sgRNA in pZRH-PBE; OsACCase target site ATGGCTGCAGAGCTACGAGGAGG (SEQ ID NO: 99) (expressed or natural sequence; target site or template, no part of the molecule) | – | 12.5% | 56.3% | 5 | 2 | 9 | 5 | – | – | – | – | – | – | – |
| R32: sgRNA in pZRH-PBE; OsACCase target site CCCAGACCGCATTGAGTGCTATG (SEQ ID NO: 104) (expressed or natural sequence; target site or template, no part of the molecule) | 1 | 10.5% | 21.1% | 13 | 2 | 4 | 2 | – | – | – | – | – | – | – |
| R20: sgRNA in pZRH-PBE; OsACCase target site TTTACACTTACATTTGTGACTGG (SEQ ID NO: 73) (expressed or natural sequence; the letters are possibly those of the target site) | 1 | 0.0% | 16.7% | 11 | 0 | 2 | 2 | – | – | – | – | – | – | – |
| R26: sgRNA in pZRH-PBE; OsACCase target site AACAACACCGTTGGACCCACCGG (SEQ ID NO: 88) (expressed or natural sequence; target site or template, no part of the molecule) | 4 | 0.0% | 71.4% | 2 | 0 | 5 | 4 | – | – | – | – | – | – | – |
| R28: sgRNA in pZRH-PBE; OsACCase target site GTTACTGGCAGAGCAAAGCTTGG (SEQ ID NO: 92) (expressed or natural sequence; target site or template, no part of the molecule) | 6 | 14.3% | 42.9% | 3 | 1 | 3 | 0 | – | – | – | – | – | – | – |
| R31: sgRNA in pZRH-PBE; OsACCase target site GACTGCAAAAGGCAATGTTCTGG (SEQ ID NO: 102) (expressed or natural sequence; target site or template, no part of the molecule) | 1 | 0.0% | 5.9% | 16 | 0 | 1 | 1 | – | – | – | – | – | – | – |
| R18: sgRNA in pZRH-PBE; OsACCase target site CCGCAAGGGTTAATTGAGATCAA (SEQ ID NO: 68) (expressed or natural sequence; target site or template, no part of the molecule) | – | 13.0% | 60.9% | 6 | 3 | 14 | 7 | – | – | – | – | – | – | – |
| R4: sgRNA in pZRH-PBE; OsACCase target site TCTGCACTGAACAAGCTTCTTGG (SEQ ID NO: 11) (expressed or natural sequence; target site or template, no part of the molecule) | – | 3.1% | 31.3% | 24 | 2 | 6 | 6 | – | – | – | – | – | – | – |
| R21: sgRNA in pZRH-PBE; OsACCase target site AGCTCCCACATGCAGTTGGGTGG (SEQ ID NO: 76) (expressed or natural sequence; target site or template, no part of the molecule) | – | 9.5% | 23.8% | 14 | 2 | 5 | 4 | 2 | 4 | – | – | – | – | – |
| R34: sgRNA in pZRH-PBE; OsACCase target site CCAGTGGGTGTGATAGCTGTGGA (SEQ ID NO: 109) (expressed or natural sequence; the letters are possibly those of the target site) | – | 0.0% | 71.4% | 4 | 0 | 10 | 7 | – | – | 3 | 2 | 4 | – | – |
| R39: sgRNA in pZRH-PBE; OsACCase target site CCGTTGGACCCACCGGACAGACC (SEQ ID NO: 125) (expressed or natural sequence; target site or template, no part of the molecule) | 1 | 50.0% | 25.0% | 1 | 2 | 1 | 1 | – | – | – | – | – | – | – |
| R35: sgRNA in pZRH-PBE; OsACCase target site CCAAGGGAAATGGTTAGGTGCTA (SEQ ID NO: 113) (guide CCAAGGGAAATGGTTAGGTGGTA; sgRNA expressed from vector pZRH-PBE, further chemistry not given here; the letters are possibly those of the target site) | 2 | 0.0% | 12.5% | 7 | 0 | 1 | 0 | – | – | – | – | – | – | – |
| R38: sgRNA in pZRH-PBE; OsACCase target site CCTGTTGCATACATTCCTGAGAA (SEQ ID NO: 122) (expressed or natural sequence; target site or template, no part of the molecule) | – | 28.6% | 35.7% | 5 | 4 | 5 | 4 | – | – | – | – | – | – | – |
| R33: sgRNA in pZRH-PBE; OsACCase target site CCTTTGTCTACATTCCCATGGCT (SEQ ID NO: 107) (expressed or natural sequence; target site or template, no part of the molecule) | 1 | 5.9% | 41.2% | 9 | 1 | 7 | 1 | – | – | – | – | – | – | – |
| R25: sgRNA in pZRH-PBE; OsACCase target site ACTTCCAGTAACAACACCGTTGG (SEQ ID NO: 85) (expressed or natural sequence; the letters are possibly those of the target site) | – | 0.0% | 40.0% | 3 | 0 | 2 | 1 | – | – | – | – | – | 2 | 1 |
| R19: sgRNA in pZRH-PBE; OsACCase target site TGCTTATTCTAGGGCATATAAGG (SEQ ID NO: 71) (expressed or natural sequence; target site or template, no part of the molecule) | 1 | 0.0% | 6.9% | 27 | 0 | 2 | 1 | – | – | – | – | – | – | – |
